Assay results as given in patent publication US6709840B1, “Anergy associated genes” (The Board of Trustees of the Leland Stanford Junior …, priority 2000, dated 2004).

B1: IL-2: murine rIL-2 (Genzyme), 5 Units/ml during restimulation (protein, UniProt P04351 21-169, looked up)
Interleukin-2: APTSSSTSSSTAEAQQQQQQQQQQQQHLEQLLMDLQELLSRMENYRNLKLPRMLTFKFYLPKQATELKDLQCLEDELGPLRHVLDLTQSKSFQLEDAENFISNIRVTVVKLKGSDNTFECQFDDESATVVDFLRRWIAFCQSIISTSPQ

What was measured:
Type in all cases: cell-based, murine
[1] = test system: 19.9.6-3 (Nurr2) mRNA in 11.3.7 T cells; assay: Real-time quantitative PCR of ddPCR clone 19.9.6-3
Method: (§1) “Real-time” Quantitative PCR. Total RNA was isolated as described above and 0.5 μg was reversed transcribed using the TaqMan reverse transcription reagent kit (PE Applied Biosystems) according to recommended protocols. Subsequently, 1 μl aliquots of cDNA (equivalent to 5 ng of input RNA) were amplified in separate reactions with primer pairs and fluorescent probe sets specific for GAPDH (to generate a standard curve to control for input cDNA amounts) and for target mRNAs identified in the differential display screen. Resting, activated and anergic RNA samples were also amplified using specific primers and a probe for IL-2. Standard cycling conditions and PCR protocols were used for the ABI PRISM 7700 Sequence Detection System (PE Applied Biosystems). […]
(§2) Using the relative standard curve method described in protocols provided by ABI, changes in target RNA expression for the different ddPCR cDNA clones and IL-2 were calculated as fold increases over resting cells. To control for input RNA amounts, the relative amount of GAPDH RNA was determined for each sample (resting, anergic, and activated) from a standard curve generated for GAPDH. […] Standard curves for both target genes and GAPDH were determined by quantitative PCR reactions using serial dilutions of known amounts of cDNA or plasmids containing relevant inserts.

[2] = test system: 1-4 (GRAIL) mRNA in 11.3.7 T cells; assay: Real-time quantitative PCR of ddPCR clone 1-4
Method: as §1, §2

[3] = test system: A9.5.7-4 (cbl-b) mRNA in 11.3.7 T cells; assay: Real-time quantitative PCR of ddPCR clone A9.5.7-4
Method: as §1, §2

[4] = test system: IL-2 mRNA in 11.3.7 T cells; assay: Real-time quantitative PCR of IL-2 message; conditions: 4 hours ionomycin vs PMA and ionomycin (100%)
Method: as §1, §2

11.3.7 T cells = assay: Anergy assay: proliferation on restimulation (3H-Thymidine)
Method: Anergy Assays. Resting 11.3.7 T cells were purified on a Lympholyte M (Cedarlane Labs) gradient and washed three times with 1×PBS. Costimulatory incompetent APCs, (B7 negative RT 7.7 fibroblasts), were irradiated at 3000 rads prior to use in antigen-induced anergy cultures. 6×10^6 T cells were mixed with 6×10^6 B7 negative RT7.7 APCs in 20 mls of culture media. […] For ionomycin-induced anergy, 2×10^6 11.3.7 T cells were incubated with 1.5 μM ionomycin (Calbiochem). For full activation, 1 μg/ml PMA was added to the cultures.
At selected time intervals, aliquots of both cultures were harvested, pelleted, and washed twice before adding 10 μl of anti-CD4 microbeads (Millenyl Biotech) to separate CD4+ T cells from the RT 7.7 fibroblast APCs, according to the manufacturer's protocol. As determined by flow cytometry, greater than 95% purity was routinely achieved. To test for the anergic phenotype, 50×10^4 T cells/well were then cultured with irradiated DBA/2 splenocytes and various concentrations of peptide in a 96 well plate. In selected cultures, murine rIL-2 (Genzyme) was added at 5 Units/ml during the restimulation period, to test the viability of the anergized T cells. After 48 hours of culture, the cells were pulsed for 18 hours with 3H-Thymidine, then harvested and counted.

[5] = test system: 6.5.2-4 (lymphotactin) mRNA in 11.3.7 T cells; assay: Real-time quantitative PCR of ddPCR clone 6.5.2-4
Method: as §1, §2

[6] = test system: 9.3.1-2 (MRC-OX44) mRNA in 11.3.7 T cells; assay: Real-time quantitative PCR of ddPCR clone 9.3.1-2
Method: as §1, §2

[7] = fold over resting T cells (1.0), GAPDH normalized
[8] = ionomycin-induced anergy (ion vs PMA/ion)

Molecule | 19.9.6-3 mRNA expression, Anergic + ion [1, 7] [fold] | 19.9.6-3 anergic:activated ratio [1, 8] [fold] | 1-4 mRNA expression, Anergic + ion [2, 7] [fold] | 1-4 anergic:activated ratio [2, 8] [fold] | A9.5.7-4 mRNA expression, Anergic + ion [3, 7] [fold] | A9.5.7-4 anergic:activated ratio [3, 8] [fold] | IL-2 mRNA level relative to activated cells [4] [%] | ionomycin-induced anergy (11.3.7 T cells; 1.5 μM ionomycin, 6 hours incubation) | induction of functional unresponsiveness (11.3.7 T cells; 1.5 μM ionomycin, one hour incubation) | 6.5.2-4 mRNA expression, Anergic + ion [5, 7] [fold] | 6.5.2-4 anergic:activated ratio [5, 8] [fold] | 9.3.1-2 mRNA expression, Anergic + ion [6, 7] [fold] | 9.3.1-2 anergic:activated ratio [6, 8] [fold] | proliferative response of anergized T cells with IL-2 added (11.3.7 T cells; antigen-induced anergy, rIL-2 5 Units/ml during restimulation) | unresponsiveness with IL-2 added to restimulation cultures (11.3.7 T cells; ionomycin-induced anergy, rIL-2 5 Units/ml during restimulation)
C[C@H](CCC(=O)O)C[C@H](C)C[C@H](C)C(=O)/C=C(\O)[C@H](C)C[C@H](C)C/C=C/[C@@H](C)[C@@H](O)[C@@H](C)[C@@H](O)C[C@@H]1CC[C@@](C)([C@H]2CC[C@@](C)([C@@H](C)O)O2)O1 [Ionomycin, ionomycin] | 21.7 | 1.1 | 4.0 | 3.3 | 11.0 | 1.4 | ≤ 0.5 | complete | did not induce a state of functional unresponsiveness | 153 | 0.84 | 10.2 | 0.71 |  | 
B1 |  |  |  |  |  |  |  |  |  |  |  |  |  | induced as strong a proliferative response in the anergized T cells as it did in the resting, control T cells | overcome
